From ChEMBL document CHEMBL3588748, “Original 2-(3-Alkoxy-1H-pyrazol-1-yl)azines Inhibitors of Human Dihydroorotate Dehydrogenase (DHODH)” (J Med Chem, 2015)
Values after ≈ are worked out from the molar mass of the structure shown. Active and inactive are the calls of the source.

Key:
[1] = Half life in human microsomes; type: ADME, Microsome
[2] = test system: Plasmodium falciparum; experiment: Antiplasmodial activity against Plasmodium falciparum 3D7 assessed as inhibition of parasite growth at 8.66 ug/ml by SYBR Green I dye based assay; type: functional, organism-based
[3] = test system: Measles morbillivirus
Description: (§1) Antiviral activity against measles virus rMV2/Luc infected in HEK-293T cells assessed as inhibition of virus growth incubated for 24 hrs by firefly luciferase reporter gene assay

[4] = target: T1, Dihydroorotate dehydrogenase (quinone), mitochondrial (Plasmodium falciparum (isolate 3D7)) (UniProt Q08210); experiment: Inhibition of Plasmodium falciparum DHODH expressed in Escherichia coli by […]-based spectrophotometric method
T1 sequence (whole entry): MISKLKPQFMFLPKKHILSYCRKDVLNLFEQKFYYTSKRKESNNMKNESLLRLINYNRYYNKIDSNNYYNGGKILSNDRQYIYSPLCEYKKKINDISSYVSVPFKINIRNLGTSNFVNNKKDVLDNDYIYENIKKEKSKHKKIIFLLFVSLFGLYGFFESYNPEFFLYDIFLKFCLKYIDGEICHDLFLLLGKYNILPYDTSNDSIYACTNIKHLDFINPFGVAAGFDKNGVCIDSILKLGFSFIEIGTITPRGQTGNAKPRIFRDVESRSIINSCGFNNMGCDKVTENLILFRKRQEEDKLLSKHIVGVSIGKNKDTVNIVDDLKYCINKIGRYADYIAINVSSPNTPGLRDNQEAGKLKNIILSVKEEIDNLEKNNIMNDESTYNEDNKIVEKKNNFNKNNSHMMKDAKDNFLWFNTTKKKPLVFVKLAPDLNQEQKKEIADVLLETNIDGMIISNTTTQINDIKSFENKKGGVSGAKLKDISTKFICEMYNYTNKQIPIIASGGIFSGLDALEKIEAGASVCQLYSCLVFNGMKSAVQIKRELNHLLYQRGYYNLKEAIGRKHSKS

[5] = test system: Plasmodium falciparum; experiment: Antiplasmodial activity against Plasmodium falciparum 3D7 assessed as inhibition of parasite growth by SYBR Green I dye based assay; type: functional, organism-based
[6] = test system: Jurkat; experiment: Inhibition of cell proliferation of human Jurkat cells incubated for 72 hrs by Celltiter-Glo assay; type: functional, cell-based
[7] = test system: Measles morbillivirus; experiment: microbe, parasite or virus in culture; conditions: rMV2/Luc, 24 h
Description: as §1

| SMILES | t1/2 [1] [min] | growth inhibition (GI) [2] | pMIC50 [3] | inhibition [4] | IC50 [5] [nM] | IC50 [6] [µM] | MIC50 [7] [µM] |
| --- | --- | --- | --- | --- | --- | --- | --- |
| Cc1c(Oc2ccccc2F)c(OC(C)C)nn1-c1ccc(C2CC2)cn1 | 4 | inactive | 7.4 |  |  |  |  |
| Cc1c(Oc2c(F)cccc2F)c(OC(C)C)nn1-c1ccc(C2CC2)nn1 |  |  |  | inactive | 330 |  |  |
| Cc1ccc(-n2nc(OC(C)C)c(Oc3c(F)cccc3F)c2C)nn1 |  |  |  | inactive | 470 |  |  |
| C/C(O)=C(\C#N)C(=O)Nc1ccc(C(F)(F)F)cc1 [TERIFLUNOMIDE] |  | inactive |  |  |  | 60 | 5 (≈ 1.35 µg/mL) |
| Cc1c(Oc2c(F)cccc2F)c(OC(C)C)nn1-c1ncc(Br)cc1F | 60 | inactive | 6.9 |  |  |  |  |
| Cc1c(Oc2c(F)cccc2F)c(OC(C)C)nn1-c1ccc(C2CC2)cn1 | 6 | inactive | 9 |  |  |  |  |
| COc1ccc(-n2nc(OC(C)C)c(Oc3c(F)cccc3F)c2C)nn1 | 22 | inactive | 7.1 |  |  |  |  |
| CCOc1nn(-c2ccc(C#N)cn2)c(C)c1Cc1ccccc1 |  | inactive | <5 |  |  |  |  |
| Cc1c(Oc2cc(F)ccc2F)c(OC(C)C)nn1-c1ccc(C2CC2)cn1 |  | inactive | 7.4 |  |  |  |  |
| CCc1ccc(-n2nc(OC(C)C)c(Oc3c(F)cccc3F)c2C)nc1 |  | inactive | 7.1 |  |  |  |  |
| Cc1c(Oc2c(F)cccc2F)c(OC(C)C)nn1-c1ncc(C2CC2)cc1O | 38 | inactive | 8.1 |  |  |  |  |
